ChEMBL document CHEMBL3045216, “Synthesis and screening of 2-(2-(4-substituted piperazine-1-yl)-5-phenylthiazol-4-yl)-3-aryl quinazolinone derivatives as anticancer agents” (Med Chem Res, 2013)

Experiments:
HEK293 = test: Cytotoxicity against Homo sapiens (human) HEK293 cells assessed as inhibition of cell proliferation after 24 hr by MTT assay; type: cell-based; conditions: HEK293, 24 h
MCF7 = test: Anticancer activity against Homo sapiens (human) MCF7 cells assessed as inhibition of cell proliferation after 24 hr by MTT assay; type: functional, cell-based; conditions: MCF7, 24 h
[1] = Anticancer activity against Homo sapiens (human) NCI lung cancer cell assessed as inhibition of cell proliferation after 24 hr by MTT assay; type: functional, cell-based; conditions: Cancer cell lines

`CN1CCN(c2nc(-c3ccccc3)c(-c3nc4ccccc4c(=O)n3-c3ccccc3)s2)CC1` showed an IC50 (HEK293) of 860 nM, an IC50 (MCF7) of 5840 nM and an IC50 [1] of 9890 nM.

`O=C(c1ccccc1)N1CCN(c2nc(-c3ccccc3)c(-c3nc4ccccc4c(=O)n3-c3ccccc3)s2)CC1` showed an IC50 (HEK293) of 420 nM, an IC50 (MCF7) of 19900 nM and an IC50 [1] of 13400 nM.

`O=c1c2ccccc2nc(-c2sc(N3CCNCC3)nc2-c2ccccc2)n1-c1ccccc1` gave an IC50 (HEK293) of 740 nM, an IC50 (MCF7) of 46700 nM and an IC50 [1] of 2660 nM.

With `CN1CCN(c2nc(-c3ccccc3)c(-c3nc4ccccc4c(=O)n3Nc3ccccc3)s2)CC1` the IC50 (HEK293) was 3030 nM, the IC50 (MCF7) was 160 nM and the IC50 [1] was 1110 nM.

`O=C(c1ccccc1)N1CCN(c2nc(-c3ccccc3)c(-c3nc4ccccc4c(=O)n3Nc3ccccc3)s2)CC1` showed an IC50 (HEK293) of 800 nM, an IC50 (MCF7) of 2490 nM and an IC50 [1] of 5590 nM.

For `COc1ccc(Nn2c(-c3sc(N4CCNCC4)nc3-c3ccccc3)nc3ccccc3c2=O)cc1`, the IC50 (HEK293) was 1110 nM, the IC50 (MCF7) was 11400 nM and the IC50 [1] was 2920 nM.

For `O=C(c1ccccc1)N1CCN(c2nc(-c3ccccc3)c(-c3nc4ccccc4c(=O)n3-c3ccc(Cl)cc3)s2)CC1`, the IC50 (HEK293) was 690 nM, the IC50 (MCF7) was > 100000 nM and the IC50 [1] was 15600 nM.

For `CN1CCN(c2nc(-c3ccccc3)c(-c3nc4ccccc4c(=O)n3-c3ccc(Cl)cc3)s2)CC1`, the IC50 (HEK293) was 940 nM, the IC50 (MCF7) was 1970 nM and the IC50 [1] was > 100000 nM.

With `O=c1c2ccccc2nc(-c2sc(N3CCNCC3)nc2-c2ccccc2)n1-c1ccc(Cl)cc1` the IC50 (HEK293) was 14400 nM, the IC50 (MCF7) was > 100000 nM and the IC50 [1] was 6100 nM.

In the case of `COc1ccccc1-n1c(-c2sc(N3CCN(C)CC3)nc2-c2ccccc2)nc2ccccc2c1=O`, the IC50 (HEK293) is reported as 670 nM, the IC50 (MCF7) is reported as 1500 nM and the IC50 [1] is reported as 9430 nM.

`COc1ccccc1-n1c(-c2sc(N3CCNCC3)nc2-c2ccccc2)nc2ccccc2c1=O` showed an IC50 (HEK293) of 550 nM, an IC50 (MCF7) of 3700 nM and an IC50 [1] of 4330 nM.

`COc1ccccc1-n1c(-c2sc(N3CCN(C(=O)c4ccccc4)CC3)nc2-c2ccccc2)nc2ccccc2c1=O` gave an IC50 (HEK293) of 2290 nM, an IC50 (MCF7) of 660 nM and an IC50 [1] of 5930 nM.

`CN1CCN(c2nc(-c3ccccc3)c(-c3nc4ccccc4c(=O)n3-c3ccccc3[N+](=O)[O-])s2)CC1` gave an IC50 (HEK293) of 810 nM, an IC50 (MCF7) of 8900 nM and an IC50 [1] of 6720 nM.

With `O=c1c2ccccc2nc(-c2sc(N3CCNCC3)nc2-c2ccccc2)n1-c1ccccc1[N+](=O)[O-]` the IC50 (HEK293) was 1070 nM, the IC50 (MCF7) was 5860 nM and the IC50 [1] was 8390 nM.

For `O=C(c1ccccc1)N1CCN(c2nc(-c3ccccc3)c(-c3nc4ccccc4c(=O)n3-c3ccccc3[N+](=O)[O-])s2)CC1`, the IC50 (HEK293) was 730 nM, the IC50 (MCF7) was 6490 nM and the IC50 [1] was 11000 nM.

For `O=c1[nH]cc(F)c(=O)[nH]1` [FLUOROURACIL], the IC50 (HEK293) was 2150 nM, the IC50 (MCF7) was 1250 nM and the IC50 [1] was 2300 nM.

For `CN(Cc1cnc2nc(N)nc(N)c2n1)c1ccc(C(=O)N[C@@H](CCC(=O)O)C(=O)O)cc1` [METHOTREXATE], the IC50 (HEK293) was 1270 nM, the IC50 (MCF7) was 2260 nM and the IC50 [1] was 2200 nM.
